Five compounds from patent publication US20260015350A1, “AZAQUINAZOLINE PAN-KRAS INHIBITORS” (Mirati Therapeutics, Inc., priority 2022, published 2026) can be followed below.

As usually defined, the IC50 is the concentration needed to halve the response being measured. Low readings indicate greater potency, high ones weaker potency. By inhibition is commonly meant the relative decrease from the control value, in per cent.

One assay has as its target T1, KRas^G12V (Homo sapiens, UniProt P01116, G12V).
T1 construct: Biotinylated KRas (corresponding to amino acids 1-169, produced at Accelegan Inc.); biotin (biotinylated); purchased Accelegan Inc
The experiment in a line: KRas binding assay (TR-FRET tracer displacement), KRas G12V. Background: TR-FRET usually uses a lanthanide donor and a delayed reading to cut background.

Assay [1] concerns KRas-mediated phosphorylation of ERK in H727 cells. The experiment in a line: Inhibition of KRas-mediated phosphorylation of ERK (Cisbio HTRF pERK), H727 cells. The assay is classed as cell-based. The note with it: Homo sapiens, NCI-H727, H727 cells; HTRF pERK. Summed up: (§1)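 Phosphorylated ERK was quantified by HTRF using d2-conjugate and Cryptate antibodies added to lysates for 2 hrs at room temperature.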

For assay [2], the system named is KRas-mediated phosphorylation of ERK in AsPC-1 cells. The experiment in a line: Inhibition of KRas-mediated phosphorylation of ERK (Cisbio HTRF pERK), AsPC-1 cells. It counts as cell-based. To be noted: Homo sapiens, ASPC1, AsPC-1 cells; HTRF pERK. An outline of the steps:
as §1

Another assay has as its target T2, KRas^G12R (Homo sapiens, UniProt P01116, G12R).
T2 construct: Biotinylated KRas (corresponding to amino acids 1-169, produced at Accelegan Inc.); biotin (biotinylated); purchased Accelegan Inc
The experiment in a line: KRas binding assay (TR-FRET tracer displacement), KRas G12R.

In assay [3] the test system is KRas-mediated phosphorylation of ERK in HCT116 cells. The experiment in a line: Inhibition of KRas-mediated phosphorylation of ERK (Cisbio HTRF pERK), HCT116 cells. It counts as cell-based. To be noted: Homo sapiens, HCT-116, 3 h, single point, 100 nM compound, 3 hrs. Summed up: as §1
Assay [4] concerns KRas-mediated phosphorylation of ERK in H460 cells. The experiment in a line: Inhibition of KRas-mediated phosphorylation of ERK (Cisbio HTRF pERK), H460 cells. The assay is classed as cell-based. The note with it: Homo sapiens, NCI-H460, 3 h, single point, 100 nM compound, 3 hrs. An outline of the steps:
as §1

For a further assay, the target named is T3, KRas^G12D (Homo sapiens, UniProt P01116, G12D).
T3 construct: Biotinylated KRas (corresponding to amino acids 1-169, produced at Accelegan Inc.); biotin (biotinylated); purchased Accelegan Inc
The experiment in a line: KRas binding assay (TR-FRET tracer displacement), KRas G12D.

The subject of assay [5] is KRas-mediated phosphorylation of ERK in MKN1 cells. The experiment in a line: Inhibition of KRas-mediated phosphorylation of ERK (Cisbio HTRF pERK), MKN1 cells. The assay is classed as cell-based. The note with it: Homo sapiens, MKN-1. An outline of the steps: (§2)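 Day 1 seeding: 6,000 cells per well, RPMI/10% FBS, left overnight at 37° C. with 5% CO2. Plates then stood covered for 4 h at room temperature prior to HTRF detection of pERK.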

Assay [6] has as its system KRas-mediated phosphorylation of ERK in PSN1 cells. The experiment in a line: Inhibition of KRas-mediated phosphorylation of ERK (Cisbio HTRF pERK), PSN1 cells. The assay is classed as cell-based. To be noted: Homo sapiens. An outline of the steps: as §2

T3 sequence (P01116 1-169 isoform P01116-2 G12D): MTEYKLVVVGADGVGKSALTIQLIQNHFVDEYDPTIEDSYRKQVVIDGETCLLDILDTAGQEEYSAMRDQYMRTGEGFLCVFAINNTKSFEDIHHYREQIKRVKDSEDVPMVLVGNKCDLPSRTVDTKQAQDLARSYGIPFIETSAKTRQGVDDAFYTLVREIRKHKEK
T2 sequence (P01116 1-169 isoform P01116-2 G12R): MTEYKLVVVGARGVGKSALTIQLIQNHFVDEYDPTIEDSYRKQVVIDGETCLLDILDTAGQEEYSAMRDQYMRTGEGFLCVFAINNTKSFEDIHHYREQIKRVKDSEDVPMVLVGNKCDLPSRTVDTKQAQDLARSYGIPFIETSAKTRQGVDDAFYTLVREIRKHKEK
T1 sequence (P01116 1-169 isoform P01116-2 G12V): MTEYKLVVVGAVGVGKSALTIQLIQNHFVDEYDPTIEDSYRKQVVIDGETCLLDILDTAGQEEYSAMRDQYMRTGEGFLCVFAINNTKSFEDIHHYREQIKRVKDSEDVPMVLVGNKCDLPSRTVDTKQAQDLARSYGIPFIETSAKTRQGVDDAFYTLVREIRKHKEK

Take `CCc1c(F)ccc2c(Br)c(O)cc(-c3ncc4c(N5C[C@@H]6C[C@H](C5)[C@H](O)C6)nc(OC[C@@]56CCCN5C[C@H](F)C6)nc4c3F)c12` [Example 537, (1R,5R,6R)-3-(7-(4-bromo-8-ethyl-7-fluoro-3-hydroxynaphthalen-1-yl)-8-fluoro-2-(((2R,7aS)-2-fluorohexahydro-1H-pyrrolizin-7a-yl)methoxy)pyrido[4,3-d]pyrimidin-4-yl)-3-azabicyclo[3.2.1]octan-6-ol]: the IC50 on KRas^G12V is 244 nM; in assay [1], 1180 nM; in assay [2], 2020 nM; at KRas^G12R, 263 nM; on KRas^G12D it was 407 nM; in assay [5] it was 1480 nM. Moreover, in [6], the IC50 is over 10000 nM. In addition, the inhibition at 0.1 µM in assay [3] stood at 2%; in assay [4] it was 29%.
Regarding `CCc1c(F)ccc2cc(O)cc(-c3ncc4c(/C=C/c5ccnn5C)nc(OC[C@@]56CCCN5C[C@H](F)C6)nc4c3F)c12` [Example 543, 5-ethyl-6-fluoro-4-(8-fluoro-2-(((2R,7aS)-2-fluorotetrahydro-1H-pyrrolizin-7a(5H)-yl)methoxy)-4-((E)-2-(1-methyl-1H-pyrazol-5-yl)vinyl)pyrido[4,3-d]pyrimidin-7-yl)naphthalen-2-ol], the 50% inhibitory concentration (IC50) at KRas^G12V was 152 nM; in [1] it was 1610 nM; in assay [2] it was over 10000 nM; at KRas^G12R, 354 nM; at KRas^G12D, 1690 nM; in assay [5], 5950 nM. The IC50 in assay [6] was over 10000 nM. The inhibition at 0.1 µM is 5% in assay [3] and -1% in assay [4].
Consider `CCc1c(F)ccc2cc(O)cc(-c3ncc4c(N5CCCC(O)(C(N)=O)C5)nc(OC[C@@]56CCCN5C[C@H](F)C6)nc4c3F)c12` (stereo partly drawn) [Example 574, 1-(7-(8-ethyl-7-fluoro-3-hydroxynaphthalen-1-yl)-8-fluoro-2-(((2R,7aS)-2-fluorohexahydro-1H-pyrrolizin-7a-yl)methoxy)pyrido[4,3-d]pyrimidin-4-yl)-3-hydroxypiperidine-3-carboxamide], for which the IC50 on KRas^G12V came out at 5 nM; in assay [1] it was 1130 nM; in assay [2] it was 3420 nM; on KRas^G12R it was 7 nM; at KRas^G12D, 7 nM; in assay [5], 78 nM. Further, the IC50 in [6] was over 10000 nM. The inhibition at 0.1 µM in [3] was found to be 18%; in assay [4] it was 19%.
Regarding `CCc1c(F)ccc2cc(O)cc(-c3ncc4c(N5CCC(C)C(F)(F)CC5)nc(OC[C@@]56CCCN5C[C@H](F)C6)nc4c3F)c12` (stereo partly drawn) [Example 581, 4-(4-(4,4-difluoro-5-methylazepan-1-yl)-8-fluoro-2-(((2R,7aS)-2-fluorotetrahydro-1H-pyrrolizin-7a(5H)-yl)methoxy)pyrido[4,3-d]pyrimidin-7-yl)-5-ethyl-6-fluoronaphthalen-2-ol], the IC50 was 39 nM at KRas^G12V; 1170 nM in assay [1]; 1370 nM in assay [2]; 41 nM at KRas^G12R; 160 nM at KRas^G12D; 527 nM in assay [5]. In [6], this compound registered an IC50 of over 10000 nM. Also, the inhibition at 0.1 µM was 21% in [3] and -24% in assay [4].
In the case of `CCc1c(F)ccc2cc(O)cc(-c3ncc4c(N5CCC(Cn6cccn6)C5)nc(OC[C@@]56CCCN5C[C@H](F)C6)nc4c3F)c12` (stereo partly drawn) [Example 587, 4-(4-(3-((1H-pyrazol-1-yl)methyl)pyrrolidin-1-yl)-8-fluoro-2-(((2R,7aS)-2-fluorotetrahydro-1H-pyrrolizin-7a(5H)-yl)methoxy)pyrido[4,3-d]pyrimidin-7-yl)-5-ethyl-6-fluoronaphthalen-2-ol], the concentration for half-maximal inhibition (IC50) was found to be 64 nM at KRas^G12V; 3090 nM in assay [1]; 2070 nM in assay [2]; 74 nM on KRas^G12R; 323 nM on KRas^G12D; 926 nM in assay [5]. This compound also returned an IC50 in assay [6] of over 10000 nM. Also, the inhibition at 0.1 µM was -12% in assay [3] and 6% in [4].
